Read-outs that look alike come from different tables or passages of the source.
Key:
DDR1 = DDR1 (Homo sapiens, UniProt Q08345); experiment: Kinase selectivity test against DDR1; assay type: biochemical
Method: On the other hand, to gain certain insights about the kinase selectivity of this array of ureidobenzothiazoles, compounds 2a and 2b were tested against DDR1 (Figure 4). Discoidin domain receptors (DDR1/2) are transmembrane receptor tyrosine kinases (RTKs), activated by fibrillar collagens. DDR1/2 and BCR-ABL share almost 61% sequence similarities in their ATP binding domains. […] This observation points out the merit of these ureidobenzothiazoles over the known BCR-ABL inhibitors in achieving exceptional selectivity towards BCR-ABL.

ABL^H396P = ABL^H396P (Homo sapiens, UniProt P00519, H396P); experiment: In vitro enzymatic activity, imatinib-resistant mutant panel; assay type: biochemical
ABL^M351T = ABL^M351T (Homo sapiens, UniProt P00519, M351T); experiment: as above; assay type: biochemical
HOP-62 [1] = experiment: NCI-60 five-dose SRB assay; assay type: cell-based; conditions: Homo sapiens; HOP-62, non-small cell lung cancer
NCI-H23 = tested on: NCI-H23; set-up: method as in earlier work; conditions: imatinib mesylate NSC 743414, NCI data; cited from earlier work
HL-60(TB) = tested on: HL-60(TB); set-up: method as in earlier work; conditions: imatinib mesylate NSC 743414, NCI data; cited from earlier work
HT29 = tested on: HT29; set-up: method as in earlier work; conditions: imatinib mesylate NSC 743414, NCI data; cited from earlier work
HCC-2998 = tested on: HCC-2998; set-up: method as in earlier work; conditions: imatinib mesylate NSC 743414, NCI data; cited from earlier work
A498 = tested on: A498; set-up: method as in earlier work; conditions: imatinib mesylate NSC 743414, NCI data; cited from earlier work
OVCAR-5 = tested on: OVCAR-5; set-up: method as in earlier work; conditions: imatinib mesylate NSC 743414, NCI data; cited from earlier work
M14 = tested on: M14; set-up: method as in earlier work; conditions: imatinib mesylate NSC 743414, NCI data; cited from earlier work
A549/ATCC = tested on: A549/ATCC; set-up: method as in earlier work; conditions: imatinib mesylate NSC 743414, NCI data; cited from earlier work
IGROV1 = tested on: IGROV1; set-up: method as in earlier work; conditions: imatinib mesylate NSC 743414, NCI data; cited from earlier work
SW-620 = tested on: SW-620; set-up: method as in earlier work; conditions: imatinib mesylate NSC 743414, NCI data; cited from earlier work
OVCAR-3 = tested on: OVCAR-3; set-up: method as in earlier work; conditions: imatinib mesylate NSC 743414, NCI data; cited from earlier work
DU-145 = tested on: DU-145; set-up: method as in earlier work; conditions: imatinib mesylate NSC 743414, NCI data; cited from earlier work
NCI 60-cell line panel = tested on: NCI 60-cell line panel; set-up: method as in earlier work; conditions: COLO205, HCC-2998, HCT-116 and HCT-15 colon cancer cells; cited from earlier work
HCT-116 = tested on: HCT-116; set-up: method as in earlier work; conditions: imatinib mesylate NSC 743414, NCI data; cited from earlier work
UO-31 = tested on: UO-31; set-up: method as in earlier work; conditions: imatinib mesylate NSC 743414, NCI data; cited from earlier work
KM12 = tested on: KM12; set-up: method as in earlier work; conditions: imatinib mesylate NSC 743414, NCI data; cited from earlier work
BT-549 = tested on: BT-549; set-up: method as in earlier work; conditions: imatinib mesylate NSC 743414, NCI data; cited from earlier work
MDA-MB-231 = tested on: MDA-MB-231; set-up: method as in earlier work; conditions: imatinib mesylate NSC 743414, NCI data; cited from earlier work
UACC-257 = tested on: UACC-257; set-up: method as in earlier work; conditions: imatinib mesylate NSC 743414, NCI data; cited from earlier work
UACC-62 = tested on: UACC-62; set-up: method as in earlier work; conditions: imatinib mesylate NSC 743414, NCI data; cited from earlier work
SF-539 = tested on: SF-539; set-up: method as in earlier work; conditions: imatinib mesylate NSC 743414, NCI data; cited from earlier work
SN12C = tested on: SN12C; set-up: method as in earlier work; conditions: imatinib mesylate NSC 743414, NCI data; cited from earlier work
T-47D = tested on: T-47D; set-up: method as in earlier work; conditions: imatinib mesylate NSC 743414, NCI data; cited from earlier work
NCI-H322M = tested on: NCI-H322M; set-up: method as in earlier work; conditions: imatinib mesylate NSC 743414, NCI data; cited from earlier work
HOP-62 [2] = tested on: HOP-62; set-up: method as in earlier work; conditions: imatinib mesylate NSC 743414, NCI data; cited from earlier work
NCI-H522 = tested on: NCI-H522; set-up: method as in earlier work; conditions: imatinib mesylate NSC 743414, NCI data; cited from earlier work
ACHN = tested on: ACHN; set-up: method as in earlier work; conditions: imatinib mesylate NSC 743414, NCI data; cited from earlier work
SF-295 = tested on: SF-295; set-up: method as in earlier work; conditions: imatinib mesylate NSC 743414, NCI data; cited from earlier work
TK-10 = tested on: TK-10; set-up: method as in earlier work; conditions: imatinib mesylate NSC 743414, NCI data; cited from earlier work
SK-MEL-28 = tested on: SK-MEL-28; set-up: method as in earlier work; conditions: imatinib mesylate NSC 743414, NCI data; cited from earlier work
SR = tested on: SR; set-up: method as in earlier work; conditions: imatinib mesylate NSC 743414, NCI data; cited from earlier work
NCI-H226 = tested on: NCI-H226; set-up: method as in earlier work; conditions: imatinib mesylate NSC 743414, NCI data; cited from earlier work
SNB-19 = tested on: SNB-19; set-up: method as in earlier work; conditions: imatinib mesylate NSC 743414, NCI data; cited from earlier work
EKVX = tested on: EKVX; set-up: method as in earlier work; conditions: imatinib mesylate NSC 743414, NCI data; cited from earlier work
PC-3 = tested on: PC-3; set-up: method as in earlier work; conditions: imatinib mesylate NSC 743414, NCI data; cited from earlier work
HS 578T = tested on: HS 578T; set-up: method as in earlier work; conditions: imatinib mesylate NSC 743414, NCI data; cited from earlier work
RXF 393 = tested on: RXF 393; set-up: method as in earlier work; conditions: imatinib mesylate NSC 743414, NCI data; cited from earlier work
MCF7 = tested on: MCF7; set-up: method as in earlier work; conditions: imatinib mesylate NSC 743414, NCI data; cited from earlier work
CCRF-CEM = tested on: CCRF-CEM; set-up: method as in earlier work; conditions: imatinib mesylate NSC 743414, NCI data; cited from earlier work
MDA-MB-435 = tested on: MDA-MB-435; set-up: method as in earlier work; conditions: imatinib mesylate NSC 743414, NCI data; cited from earlier work
U251 = tested on: U251; set-up: method as in earlier work; conditions: imatinib mesylate NSC 743414, NCI data; cited from earlier work

DDR1, sequence (Q08345 19-913, species assumed): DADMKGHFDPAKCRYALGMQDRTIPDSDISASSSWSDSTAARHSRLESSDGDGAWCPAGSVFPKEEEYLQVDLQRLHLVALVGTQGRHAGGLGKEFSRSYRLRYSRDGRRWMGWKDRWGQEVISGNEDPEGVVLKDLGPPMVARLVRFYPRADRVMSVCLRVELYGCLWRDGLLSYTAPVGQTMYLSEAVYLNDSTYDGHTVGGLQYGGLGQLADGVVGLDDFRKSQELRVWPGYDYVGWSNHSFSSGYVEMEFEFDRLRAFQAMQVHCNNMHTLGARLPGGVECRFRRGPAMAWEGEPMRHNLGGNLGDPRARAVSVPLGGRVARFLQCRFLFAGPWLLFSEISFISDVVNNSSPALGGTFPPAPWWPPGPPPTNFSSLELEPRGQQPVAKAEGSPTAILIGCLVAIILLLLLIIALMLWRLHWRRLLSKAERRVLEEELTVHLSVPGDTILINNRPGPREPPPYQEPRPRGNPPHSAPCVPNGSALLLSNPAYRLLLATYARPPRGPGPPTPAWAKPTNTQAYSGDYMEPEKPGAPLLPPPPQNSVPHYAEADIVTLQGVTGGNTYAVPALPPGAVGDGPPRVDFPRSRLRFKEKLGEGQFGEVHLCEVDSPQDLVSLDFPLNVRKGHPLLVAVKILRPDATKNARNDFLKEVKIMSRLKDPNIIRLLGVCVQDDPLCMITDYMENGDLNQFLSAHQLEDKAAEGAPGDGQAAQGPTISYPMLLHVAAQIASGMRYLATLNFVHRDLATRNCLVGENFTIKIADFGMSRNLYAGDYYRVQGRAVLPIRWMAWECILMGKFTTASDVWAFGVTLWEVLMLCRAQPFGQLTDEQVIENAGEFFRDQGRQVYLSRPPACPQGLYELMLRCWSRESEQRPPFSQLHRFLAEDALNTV

CCN1CCN(c2ccc(NC(=O)Nc3nc4ccc(-c5ccccc5OC)cc4s3)cc2)CC1 [Compound 2b]
IC50 (DDR1): 0.199 µM
IC50 (ABL^H396P): < 0.001 µM
IC50 (ABL^M351T): 0.00106 µM

COc1ccccc1-c1ccc2nc(NC(=O)Nc3cc(C(F)(F)F)cc(C(F)(F)F)c3)sc2c1 [Compound 2e]
GI50 (HOP-62 [1]): 2.1 µM

Cc1ccc(NC(=O)c2ccc(CN3CCN(C)CC3)cc2)cc1Nc1nccc(-c2cccnc2)n1 [Imatinib]
GI50 (NCI-H23): 15 µM
GI50 (HL-60(TB)): 13.5 µM
GI50 (HT29): 3.97 µM
GI50 (HCC-2998): 21.2 µM
GI50 (A498): 22 µM
GI50 (OVCAR-5): 0.58 µM
GI50 (M14): 19.3 µM
GI50 (A549/ATCC): 24.5 µM
GI50 (IGROV1): 21.2 µM
GI50 (SW-620): 23.4 µM
GI50 (OVCAR-3): 34.2 µM
GI50 (DU-145): 18.8 µM
GI50 (NCI 60-cell line panel): 12.6 to 21.2 µM
GI50 (HCT-116): 12.6 µM
GI50 (UO-31): 22.3 µM
GI50 (KM12): 18.8 µM
GI50 (BT-549): 16.1 µM
GI50 (MDA-MB-231): 18.7 µM
GI50 (UACC-257): 21.1 µM
GI50 (UACC-62): 19 µM
GI50 (SF-539): 10.6 µM
GI50 (SN12C): 33.2 µM
GI50 (T-47D): 19.9 µM
GI50 (NCI-H322M): 22.8 µM
GI50 (HOP-62 [2]): 21.5 µM
GI50 (NCI-H522): 16.4 µM
GI50 (ACHN): 25.2 µM
GI50 (SF-295): 19.8 µM
GI50 (TK-10): 26.9 µM
GI50 (SK-MEL-28): 14.6 µM
GI50 (SR): 7.14 µM
GI50 (NCI-H226): 18.1 µM
GI50 (SNB-19): 38.6 µM
GI50 (EKVX): 26.2 µM
GI50 (PC-3): 21.4 µM
GI50 (HS 578T): 14.6 µM
GI50 (RXF 393): 15.1 µM
GI50 (MCF7): 18.2 µM
GI50 (CCRF-CEM): 17 µM
GI50 (MDA-MB-435): 17.9 µM
GI50 (U251): 18 µM
